Patent US20140255432A1, “SILVESTROL, SILVESTROL ANALOGS AND USES THEREOF” (priority 2011, published 2014)

How the values were obtained:
[1] = Pharmacokinetics work in mice; format: in vivo
K562 cells = test: NK cytotoxicity of K562 cells; format: cell-based; conditions: 10 nM (FIG. 41)
Excerpt: (§1) FIG. 41 presents data regarding NK cytotoxicity of K562 cells. […] FIG. 42 presents data regarding the cytotoxicity of LCLs pretreated with BZLF 1. […] BZLF1 antigen pulsed LCLs promoted enhanced killing in untreated and silvestrol-treated CTLs. FIG. 43 presents data relating to CD4 IFNgamma release with LCL pretreated with BZLF1. […] FIG. 44 presents data relating to CD4 IFNgamma release with LCL pretreated with BZLF 1. […] FIG. 45 presents data relating to interleukin-6 induction by silvestrol. […] FIG. 46 presents data relating to a change in LMP-1 expression following silvestrol treatment. […] Three cell lines were examined on days 1, 3, and 5 following treatment. FIG. 47 presents data relating to a change in EBNA1 expression following silvestrol treatment. Three cell lines were examined on days 1, 3, and 5 following treatment.

[2] = test system: STAT1, STAT3, AKT and NF-κB p65; test: Immunoblot of LMP-1 downstream pathways in LCL; format: cell-based, human
Experimental: (§2) Cells were harvested and lysed as described (Alinari 2011). Following collection of whole cell lysates, equal amounts of protein were resolved by SDS-PAGE and transferred onto a PVDF membrane (Millipore, Billerica, Mass.). Membrane was probed overnight at 4° C. with β-actin, pSTAT1, pSTAT3, STAT1, STAT3, pAkt, Akt (Cell Signaling Technology, Danvers, Mass.), or LMP-1 (DakoCytomation, Carpinteria, Calif.). After incubation with HRP-conjugated secondary antibody (Cell Signaling Technology), protein was detected with SuperSignal West Pico Chemiluminescent Substrate (Pierce, Rockford, Ill.).
Through its cytoplasmic C-terminal-activating region 1 (CTAR1), LMP-1 constitutively activates multiple pro-survival signaling pathways including NF-κB, PI3K/AKT, and STATs 1 and 3 (Shair 2007; Gires 1999; Dawson 2003; Kung 2008; Kung 2011) similar to an external growth stimulus. Thus, LMP-1 directly and indirectly promotes tumor cell growth and survival through diverse mechanisms. To investigate the effects of silvestrol on these pathways, LCLs were incubated for 24, 72, and 120 hr with vehicle or 10 nM silvestrol, and cell extracts were analyzed by immunoblot. […] Using the same treatment conditions, a decrease in the levels of both total Akt and its activated, phosphorylated form was observed. […] Total levels of NF-κB proteins such as p50, p105, and IKBa were unchanged (left panel), as were Bcl2 family proteins such as Bcl2, Mel1, and Bax (right panel) (FIG. 36).

LMP-1 = test: Immunoblot of LMP-1 in LCL; format: cell-based, Epstein-Barr virus
Experimental: as §2
(§3) Whole cell protein levels of LMP-1 was evaluated by immunoblot 72 hr after treating with a single dose (10 nM) of silvestrol in seven LCL lines (FIG. 3A). β-actin was included as a loading control. In FIG. 3B, LCL were incubated 24, 72, and 120 hr in the presence of 10 nM silvestrol or vehicle control. Whole cell lysates were immunoblotted for LMP-1. Results are representative of 3 LCL lines. […] Decreases in other latent gene products involved with EBV-driven B cell transformation were observed as well. In FIG. 3D, LCL were incubated as in FIG. 3B and immunoblotted for STAT1, STAT3, AKT and NF-κB p65.

IFNgamma = IFNgamma release / production of immune effector cells; format: cell-based, human
Experimental: CoCx were incubated in the presence of 10 U/ml IL-2 and given a single dose of 0 (vehicle only), 2, 5, or 10 nM silvestrol. At day 14 cells were (A) stimulated non-specifically by addition of 12-O-tetradecanoylphorbol-13-acetate (TPA) and ionomycin (INO) to assay for the ability to release interferon gamma (IFNγ) or (B) by the addition of equal numbers autologous LCL to measure cell mediated response to antigen-induced IFNγ production. IFNγ production was measured by […] flow following four hour stimulation.
as §1

EBNA2, EBNA3C, BZLF1 = test: Immunoblot of other EBV proteins in LCL; format: cell-based, Epstein-Barr virus; conditions: FIG. 3C
Experimental: as §2, §3

lymphoma cell lines = test: IC50 against lymphoma cell lines; format: cell-based; conditions: Homo sapiens
Excerpt: These include EBV^+ lymphoblastoid cell lines (LCL) derived from SCID mice engrafted with peripheral blood mononuclear cells (hu-PBL-SCID) from EBV-positive donors. (FIG. 1). This hu-PBL-SCID model is a spontaneous, preclinical model of EBV-driven lymphomagenesis that can be utilized to study the anti-tumor and immune surveillance activity of EBV-specific memory T cells. In vitro, the anti-proliferative effect of silvestrol against EBV+ LCLs (FIG. 2) is preceded by a loss of EBV latent membrane protein 1 (LMP1). In FIG. 2A, relative proliferation was determined. MTS assays were performed on three donors treated with silvestrol (2, 5, or 10 nM) or DMSO (control). The assays were performed on days 1, 3, and 5. In FIG. 2B, relative growth was determined. Viability assays were performed on cells from three donors treated with silvestrol (2, 5, or 10 nM) or DMSO (control). The assays were performed on days 1, 3, and 5. Viability was assessed by annexin/propidium iodide flow cytometry.

COC(=O)[C@H]1[C@@H](O)[C@@]2(O)c3c(OC)cc(O[C@@H]4O[C@@H]([C@H](O)CO)CO[C@H]4OC)cc3O[C@@]2(c2ccc(OC)cc2)[C@@H]1c1ccccc1 [silvestrol]
concentration attainable in vivo [1]: 10 nM
direct killing of K562 cells by NK cells (K562 cells): not adversely affected
phosphorylated (activated) STAT1 level ([2]; 10 nM, 24, 72, 120 hr): decreased
phosphorylated (activated) STAT3 level ([2]; 10 nM, 24, 72, 120 hr): decreased
phosphorylated Akt level ([2]; 10 nM, 24, 72, 120 hr): a decrease
total Akt level ([2]; 10 nM, 24, 72, 120 hr): a decrease
total STAT1 level ([2]; 10 nM, 24, 72, 120 hr): remained unchanged
total STAT3 level ([2]; 10 nM, 24, 72, 120 hr): remained unchanged
total p65 levels ([2]; 10 nM, 24, 72, 120 hr): relatively unchanged
total levels of NF-κB proteins p50, p105, IKBa ([2]; FIG. 36 left panel): unchanged
Bcl2 family proteins Bcl2, Mcl1, Bax ([2]; FIG. 36 right panel): unchanged
LMP1 protein levels (LMP-1; 10 nM, 5 days, cells from seven donors (FIG. 3A)): reduced LMP1 protein levels
LMP-1 levels over time (LMP-1; single 10 nM dose, 24, 72, 120 hr (FIG. 3B)): fall incrementally as a function of time
IFNgamma release of CD4+ T cells (IFNgamma; 10 nM, LCL pretreated with BZLF1 (FIG. 43)): not adversely affected
IFN production of immune effector subsets against irradiated autologous EBV+ LCL (DC9) (IFNgamma; low concentrations (2-10 nM) (FIG. 18)): not abrogated
EBNA2 and EBNA3C proteins (EBNA2, EBNA3C, BZLF1): affected
expression of BZLF1 (EBNA2, EBNA3C, BZLF1): did not affect
IC50 (lymphoma cell lines): < 10 nM
